Measured values from the supplement of paper PMC8967900.

How the values were obtained:
Experiment in all cases: selective drug sensitivity score (sDSS, relative to normal bone marrow) (sDSS (score)); higher = more potent and effective on the cell line relative to normal bone marrow cells
Details in all cases: 72 h
697 = tested on: 697
CCRF-CEM = tested on: CCRF-CEM
CCRF-HSB2 = tested on: CCRF-HSB2
COG-LL-332h = tested on: COG-LL-332h
COG-LL-402h = tested on: COG-LL-402h
HAL-01 = tested on: HAL-01
KARPAS-45 = tested on: KARPAS-45
KASUMI-2 = tested on: KASUMI-2
KOPN-8 = tested on: KOPN-8
LC4-1 = tested on: LC4-1
MHH-CALL-3 = tested on: MHH-CALL-3
MHH-CALL-4 = tested on: MHH-CALL-4
MOLT-16 = tested on: MOLT-16
NALL-1 = tested on: NALL-1
NALM-6 = tested on: NALM-6
PF-382 = tested on: PF-382
RPMI-8402 = tested on: RPMI-8402
SEM cells = tested on: SEM cells
SUP-B15 = tested on: SUP-B15
TMD5 = tested on: TMD5
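Also: ALL cell lines in 384-well plates, five doses spanning 10,000-fold, each plate scaled between vehicle and 100 µmol/L benzalkonium chloride controls, sDSS an adapted area-under-curve metric.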

Row | Structure (SMILES) | selective drug sensitivity score 697 | selective drug sensitivity score (CCRF-CEM) | selective drug sensitivity score (CCRF-HSB2) | selective drug sensitivity score (COG-LL-332h) | selective drug sensitivity score (COG-LL-402h) | selective drug sensitivity score (HAL-01) | selective drug sensitivity score (KARPAS-45) | selective drug sensitivity score (KASUMI-2) | selective drug sensitivity score (KOPN-8) | selective drug sensitivity score (LC4-1) | selective drug sensitivity score (MHH-CALL-3) | selective drug sensitivity score (MHH-CALL-4) | selective drug sensitivity score (MOLT-16) | selective drug sensitivity score (NALL-1) | selective drug sensitivity score (NALM-6) | selective drug sensitivity score (PF-382) | selective drug sensitivity score (RPMI-8402) | selective drug sensitivity score (SEM cells) | selective drug sensitivity score (SUP-B15) | selective drug sensitivity score (TMD5)
1 | O=c1[nH]cc(F)c(=O)[nH]1 [Fluorouracil] (top concentration 10000 nM) | 3.46 | 3.06 | -0.64 | 4.26 | 3.36 | -0.44 | 0.46 | 1.56 | 2.96 | 5.16 | -0.24 | -0.14 | 6.36 | -0.24 | 1.86 | -0.64 | 2.66 | 2.76 | 3.46 | -0.64
2 | CCNC(=O)CCC/C=C\C[C@@H]1[C@@H](/C=C/[C@@H](O)CCc2ccccc2)[C@H](O)C[C@@H]1O [Bimatoprost] (top concentration 5500 nM) | 0 | 0 | 0 | 0 | 0 | 0 | 0 | 2.5 | 0 | 0 | 0 | 0.5 | 0 | 0 | 0 | 0 | 0 | 0 | 0 | 0
3 | O=C1CN2Cc3c(ccc(Cl)c3Cl)N=C2N1 [Anagrelide] (top concentration 10000 nM) | 0 | 0 | 0 | 0 | 0 | 0 | 0 | 0 | 3.4 | 0 | 0 | 0.6 | 0 | 1.1 | 0 | 0 | 0 | 0 | 0 | 0
4 | C[C@@H]1C[C@H]2[C@@H]3CCC4=CC(=O)C=C[C@]4(C)[C@@]3(F)[C@@H](O)C[C@]2(C)[C@@]1(O)C(=O)CO [Dexamethasone] (top concentration 10000 nM) | 32.2 | 13.9 | 18.8 | 1.88 | 29.3 | -1.42 | 24.4 | 14.6 | 33.9 | 12.5 | 40.3 | 36.7 | 9.68 | 34.1 | 30.8 | 1.48 | 3.18 | 10.9 | 43 | 14.9
5 | COc1cc2c(cc1OCCCN1CCCC1)N=C(N)C21CCC1 [A-366] (top concentration 25000 nM) | -1.34 | 2.16 | 0.16 | 4.86 | -1.84 | -1.84 | 5.16 | -1.84 | -0.64 | -1.24 | -1.84 | -0.34 | 3.46 | -1.84 | -1.84 | -0.84 | 4.06 | 0.46 | -1.14 | -1.84
6 | CCc1cc2c(cc1N1CCC(N3CCOCC3)CC1)C(C)(C)c1[nH]c3cc(C#N)ccc3c1C2=O [Alectinib] (top concentration 1000 nM) | 2.48 | 0.18 | -0.22 | 0.18 | 1.48 | 1.28 | 1.28 | 1.08 | 1.38 | 3.18 | -0.22 | -0.12 | -0.22 | -0.22 | 1.28 | -0.22 | 2.08 | 0.58 | -0.22 | -0.22
7 | Cc1cnc(NC(=O)Nc2cc(Br)c(C)cc2OC[C@@H]2CNCCO2)cn1 [Rabusertib] (top concentration 1000 nM) | -0.74 | 0.06 | -0.74 | -0.74 | 1.36 | 3.06 | 0.36 | -0.74 | 1.66 | 0.16 | -0.74 | 0.16 | -0.14 | -0.74 | 1.16 | -0.64 | 0.46 | 1.26 | -0.74 | -0.74
8 | CN1CCC(COc2cnc(-c3cccc(Cn4nc(-c5cccc(C#N)c5)ccc4=O)c3)nc2)CC1 [Tepotinib] (top concentration 1000 nM) | -0.08 | -0.08 | 0.02 | -0.08 | -0.08 | -0.08 | -0.08 | 2.02 | -0.08 | 4.62 | -0.08 | -0.08 | -0.08 | -0.08 | -0.08 | -0.08 | -0.08 | 0.22 | -0.08 | -0.08
9 | Cc1cc(F)c(C(=O)Nc2cccc(-c3nncn3C(C)C)n2)cc1-n1cnc(C2CC2)c1 [Selonsertib] (top concentration 1000 nM) | 0.3 | 0 | 0 | 0 | 0 | 6.6 | 0 | 0 | 0 | 0 | 0 | 0.2 | 0 | 0 | 0 | 0 | 0 | 0 | 0 | 6.7
